# Assay results reported in patent publication US8129137B2, “Two-photon probe for real-time monitoring of intracellular free zinc ions, method for preparing the probe and method for real-time monitoring of intracellular free zinc ions using the probe” (Korea University Industrial & Academic Collaboration …, priority 2008, dated 2012).
# What was measured:
# [1] = Fluorescence quantum yield (Coumarin 307 as reference); format: physicochemical; conditions: in methanol in the presence of Zn2+
# Protocol: The absorption spectra of the two-photon probes were recorded on a Hewlett-Packard 8453 diode array spectrophotometer, and the fluorescence spectra of the two-photon probes were obtained with an Amico-Bowman series 2 luminescence spectrometer with a 1 cm standard quartz cell. The fluorescence quantum yields of the two-photon probes were determined by using Coumarin 307 as the reference by the literature method (J. N. Demas, G. A. Crosby, J. Phys. Chem. 1971, 75, 991-1024.). FIGS. 2a and 2b are one-photon absorption and emission spectra of the two-photon probe AZn1, respectively, and FIGS. 2c and 2d are one-photon absorption and emission spectra of the two-photon probe AZn2, respectively.
# [2] = Two-photon cross section and action spectra; format: physicochemical; conditions: in methanol in the presence of Zn2+; 780 nm
# Protocol: The two-photon cross section (δ) was determined by using femto second (fs) fluorescence measurement technique.
# The intensities of the two-photon induced fluorescence spectra of the reference and the sample probe were measured, and the two-photon cross section of the sample probe was calculated according to Equation 3:
# [formula] wherein the subscripts s and r represent sample and reference molecules, respectively, δ represents the two-photon cross section, S represents the strength of signals collected by a CCD detector, φ represents the fluorescence quantum efficiency, φrepresents the total fluorescence collection efficiency of an experimental system, c represents the number density of the molecules within each of the solutions, and δr represents the two-photon cross section of reference molecules.
# Referring to FIG. 9, the two-photon action spectra of the Zn^2+ complexes with AZn1 and AZn2 in the buffer solutions indicated a φδ value of ˜90 GM at 780 nm, 4˜24-fold larger than those of TSQ and FluZin-3.
smiles,measurement,setting,value
"COc1cc(NS(=O)(=O)c2ccc(C)cc2)c2ncccc2c1 [TSQ, reference compound]",fluorescence quantum yield φ,[1],0.43
same,"δ, peak two-photon cross section",[2],10 GM
same,"φδ, two-photon action cross section",[2],4 GM
